Paper PMC12775124, “CUL4A-DDB1-DCAF10 is an N-recognin for N-terminally acetylated Src kinases” (Nature Communications, 2026)
Like-named read-outs stand apart in the source and are kept apart here.

Tests used:
DCAF10 [1] = test: Peptide pull-down with quantitative MS, HeLa lysate, DCAF10; assay type: binding, human (HeLa); conditions: HeLa lysate; for DCAF10 binding (in words): Nt-Ac vs Nt-free peptides
Method: Beads presenting 10-residue synthetic Nt-peptides of proteins of interest in their free (Nt-free) or modified (e.g., Nt-acetylated) versions were incubated with lysates from HeLa cells, followed by MS-based quantification of retained binders (Fig. 1a).
Biotinylated 10-mer Nt-peptides (Nt-free, Nt-acetylated, and, where indicated, Nt-myristoylated; sequences in Supplementary Table 1) were synthesized with a C-terminal Lys3 spacer and biotin, immobilized on magnetic streptavidin beads, and incubated with HeLa or mouse liver lysates. After standardized washes, bound proteins were on-bead reduced/alkylated, digested with LysC/trypsin, desalted, and analysed by LC-MS in DIA mode (Orbitrap Exploris 480) as described previously[24]. Variants included endogenous Nt-sequences, swap and mutant (Ala-Ala-Ala or Nt-amino acids) peptides, and pairwise comparisons of conditions of interest.
All MS experiments were performed as independent biological triplicates. Relative protein quantification was carried out using the label-free algorithm integrated in DIA-NN[53], and statistical testing was performed in Perseus using a two-sided Student’s t test with permutation-based multiple-testing-adjusted p-values[53],[54], as specified in the figure legends. […] Volcano blots were visualized with RStudio (version 2023.06.0). […] Cell experiments were performed as biological replicates, and binding assays as independent assays. […] Data are presented as mean ± s.d. Fold changes are reported as the ratio of the normalized value for the condition of interest to the normalized control value, with mean ± s.d. computed across biological replicates.

human NatA = target: T1, human NatA (Homo sapiens, UniProt P41227+Q9BXJ9); test: In vitro Nt-acetylation assay (NatA, CPM fluorescence); assay type: biochemical
T1 construct: Human NatA (hNatA) full-length (FL) was cloned; made in house; host or cells: Tnao38 insect cells (baculovirus, pFL vector)
T1 sequence (P41227 1-235): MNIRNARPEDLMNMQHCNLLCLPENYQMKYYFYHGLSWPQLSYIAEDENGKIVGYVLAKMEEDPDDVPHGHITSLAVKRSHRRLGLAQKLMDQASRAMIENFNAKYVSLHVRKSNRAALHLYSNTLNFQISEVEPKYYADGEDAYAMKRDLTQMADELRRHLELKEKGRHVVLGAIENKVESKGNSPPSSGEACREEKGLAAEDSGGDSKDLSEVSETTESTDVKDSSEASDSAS
T1 sequence (Q9BXJ9 1-866 partner): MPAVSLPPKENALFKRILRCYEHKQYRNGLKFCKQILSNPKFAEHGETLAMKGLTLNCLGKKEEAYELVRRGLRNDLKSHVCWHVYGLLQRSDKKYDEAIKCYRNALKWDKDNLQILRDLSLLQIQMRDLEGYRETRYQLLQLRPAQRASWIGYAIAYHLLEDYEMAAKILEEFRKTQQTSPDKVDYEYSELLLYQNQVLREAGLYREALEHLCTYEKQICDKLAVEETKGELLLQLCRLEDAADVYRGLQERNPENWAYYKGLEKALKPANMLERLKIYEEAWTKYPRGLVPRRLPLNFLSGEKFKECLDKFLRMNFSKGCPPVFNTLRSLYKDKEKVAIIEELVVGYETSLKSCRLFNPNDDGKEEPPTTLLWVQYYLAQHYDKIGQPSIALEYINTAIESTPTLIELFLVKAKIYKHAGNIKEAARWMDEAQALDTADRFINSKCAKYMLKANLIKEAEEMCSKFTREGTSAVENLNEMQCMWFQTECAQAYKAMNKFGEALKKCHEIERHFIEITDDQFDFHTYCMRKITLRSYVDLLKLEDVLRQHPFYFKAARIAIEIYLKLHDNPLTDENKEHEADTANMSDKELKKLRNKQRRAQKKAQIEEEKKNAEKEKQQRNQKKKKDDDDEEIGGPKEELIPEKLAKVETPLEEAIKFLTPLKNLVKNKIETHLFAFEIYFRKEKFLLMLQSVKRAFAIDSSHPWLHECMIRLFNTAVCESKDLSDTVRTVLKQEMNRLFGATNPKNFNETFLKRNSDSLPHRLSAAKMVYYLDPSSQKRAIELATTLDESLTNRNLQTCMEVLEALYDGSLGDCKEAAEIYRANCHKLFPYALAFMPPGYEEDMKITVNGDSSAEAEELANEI
Method: Gly-starting proteins can be substrates of the Nt-acetyltransferase NatA[3],[21]. Having established direct DCAF10 binding to Ac-Gly N-termini, we next asked whether SFK N-termini are bona fide NatA substrates. We developed an in vitro Nt-acetylation assay comprising purified NatA, acetyl-CoA (Ac-CoA), and the peptide of interest (Fig. 3a, b)[33]. Acetyl-group transfer was assessed using CPM [7-(diethylamino)−3-(4′-maleimidophenyl)−4-methylcoumarin], which reacts specifically with free thiol groups to produce a highly fluorescent product (excitation: 390 nm; emission: 479 nm), allowing detection of CoA production after acetyl-group transfer to the peptide (Supplementary Fig. 4e). We optimized the conditions to determine Michaelis–Menten kinetics for NatA-mediated Nt-acetylation with a target peptide ([…]) previously used for NatA assays and co-crystallization (Supplementary Fig. 4f)[34]. […] Likely, this was due to a Km even higher than that of Src, and implying that the peptide concentrations in the assay might have been insufficient for the reaction to proceed with an appreciable rate. […] Negative controls (COX17 and Ac-Lyn) produced low signals. […] Given the direct association of NatA with SFK N-termini at the ribosomal exit tunnel, however, we surmise that Nt-acetylation of SFKs in cells may proceed despite these unfavorable kinetic parameters.
The assay was performed essentially as described previously. Briefly, peptide substrates (Supplementary Table 1) were incubated with purified human NatA and acetyl-CoA; acetylation was quantified by CPM fluorescence (CoA detection), and Michaelis–Menten parameters were derived from 8-point 1:1 dilution series within the linear range (n = 4 independent enzymatic assays). Full buffer compositions, reagent concentrations, plate format, instrument settings, controls, and fitting procedures are provided in the Supplementary Methods and Tables. […]
301 Cloning, expression, and purification of human NatA
302 Human NatA (hNatA) full-length (FL) was cloned in a pFL vector expressing both
303 genes, NAA15 with a 6× C-term histidine tag (NAA15-6xHIS) and NAA102. The
304 expression was carried out in insect cells (Tnao38) for 72 h infected 1:20 with
305 baculovirus. Washed cell pellets were lysed by sonication in a lysis buffer containing 200
306 mM NaCl, 50 mM HEPES pH 8.0, 20 mM Imidazole, and 2 mM TCEP. The protein
307 purification was performed as a three-step purification, starting with an affinity nickel
308 column, followed by an ion-exchange column with a gradient of 50–300 mM NaCl, and
309 finished with size exclusion chromatography (SEC) using an S200 10/300 column. The
310 main peaks were collected, and the protein was concentrated in the SEC buffer (150 mM
311 NaCl, 50 mM HEPES pH 8.0, 1 mM EDTA). The purified hNatA was flash-frozen in
312 liquid nitrogen and stored at -80°C.
314 In vitro Nt-acetylation assay
315 The method has been described in detail previously2. Briefly, different peptides
316 (Supplementary Table 1) and concentrations (an eight-step, 1:1 dilution series for
317 Michaelis-Menten curves) as indicated were incubated with 20 nM hNatA and 80 µM Ac-
318 CoA in reaction buffer (50 mM HEPES pH 8.0, 0.5 mM EDTA, 0.005% CHAPS) for 60
319 (Src) or 120 min (Lyn), at RT in a 384-well microplate (Corning 4514) (n = 4).
320 Afterwards, the enzymatic reaction was stopped by adding 1:1 DMSO with 10 µM (final
321 concentration 5 µM) of the thiol reactive CPM (7-Diethylamino-3-
322 (4'Maleimidylphenyl)4-Methylcoumarin). After 1 h at RT, the readout was performed
323 with a Tecan Spark® Multimode Microplate Reader (excitation 390 nm, emission 479
324 nm). Background values at 0 µM peptide were subtracted, and control reactions omitting
325 NatA or Ac-CoA were performed. Dilution series of CoA incubated with 5 µM CPM were
326 used to generate a linear equation (y = 10.99*x + 81.06) to calculate acetylation velocities
327 for NatA-mediated peptide acetylation. […]

DCAF10 [2] = test: Anti-GFP immunoprecipitation of Lyn-GFP with MS, DCAF10; assay type: binding, human; conditions: anti-GFP IP, NMT1/2 siRNA and control
Method: 494 induction using GFP-Trap magnetic agarose beads. Briefly, 10 µL of bead slurry per
495 reaction was equilibrated three times with ice-cold lysis buffer (75 mM HEPES pH 7.5,
497 supplemented with 1mM DTT, PhosSTOP, and Protease Inhibitor Cocktail). Then, 500
498 µL of each lysate sample (control, dox induction, and NMT1/2 knockdown with or
499 without dox induction) containing approximately 300 µg total protein, were added to
500 tubes containing the equilibrated beads. Samples were rotated end-over-end for 1.5–2 h
After incubation, the beads were washed twice with 500 µL of cold lysis buffer
502 and twice with 500 µL of cold lysis buffer lacking NP-40, glycerol, DTT, phosSTOP, and
503 Protease Inhibitor Cocktail. Finally, the immunoprecipitates were resuspended in 50 µL
504 of 8 M urea, incubated at 25°C for 30 min, and stored at -20°C prior to on-bead digestion
Each experimental condition was performed in
526 Mass spectrometry measurements and raw file processing
527 Samples (peptide pull-downs, IPs and high-pH fractionations) were separated on an
528 EASY-nLC 1200 HPLC system (Thermo Fisher Scientific, Waltham, MA, USA) using
529 in-house-packed 50-cm reversed-phase columns (75 cm diameter, 1.9 mm C18 ReproSil
530 particles, Dr. Maisch GmbH) (60°C at 300 nL/min flow rate with an 83 min gradient from […]
536 sec cycle time) (data points per peak = 6). Cycle times were calculated based on the […]

[3] = original assay, peptide up to 160 μM
[4] = starting peptide concentration 1 mM
[5] = 20 nM NatA, 80 µM Ac-CoA, pH 8.0, RT, 120 min, peptide up to 1 mM, CPM fluorescence, mean ± s.d., n = 4, read-out: Km
[6] = conclusion: poor NatA substrates, read-out: Km, summary statement
[7] = rounded values in Peer Review File, read-out: Km, as given in rebuttal

| Substance | DCAF10 binding (in words) (DCAF10 [1]) | Nt-acetylation by NatA (in words) (human NatA; [3]) | Nt-acetylation by NatA (in words) (human NatA; [4]) | Km (human NatA; [5]) [µM] | Km (human NatA; [6]) [µM] | Km (human NatA; [7]) [µM] | also measured |
| --- | --- | --- | --- | --- | --- | --- | --- |
| GSNKSKPKDAKK [Ac-Src, Nt-peptide of Src, Nt-acetylated] | bound to DCAF10 | no detectable acetylation | – | – | – | – | DCAF10 binding in initial pull-downs, log2 (DCAF10 [1]; Ac-Src vs Nt-free Src): ~5 log2; DCAF10 binding, Nt-Ac vs Nt-Myr (in words) (DCAF10 [1]; listed as Nt-acetylated Src): DCAF10 selectively recognizes the acetylated form |
| Lyn^WT-GFP: doxycycline-inducible C-terminally GFP-fused Lyn in DLD-1 Lyn KO cells | – | – | – | – | – | – | Interaction with DCAF10 (in words) (DCAF10 [2]): significantly interacted with DCAF10 under both NMT1/2 siRNA and control conditions, with significant enrichment upon NMT1/2 KD |
| GCIKSKGKDSKK [Ac-Lyn, Nt-peptide of Lyn (aa 1–10 + KKK-biotin), Nt-acetylated] | bound to DCAF10 | – | low signals | – | – | – | DCAF10 binding, Nt-Ac vs Nt-Myr (in words) (DCAF10 [1]): DCAF10 selectively recognizes the acetylated form; log₂ difference Ac-Lyn vs Ac-THOC7, DCAF10 (DCAF10 [1]; n = 3): 5.83 |
| GCVQCKDKEAKK [Nt-free Fyn, Nt-peptide of Fyn, Nt-free] | – | did not show Nt-acetylation under these conditions | detectable Nt-acetylation | 235 ± 46 | > 100 | 235 | – |
| GCIKSKGKDSKK [Nt-free Lyn, Nt-peptide of Lyn (aa 1–10 + KKK-biotin), Nt-free] | – | did not show Nt-acetylation under these conditions | detectable Nt-acetylation | 411 ± 94 | > 100 | 411 | – |
